Experiments:
[1] = target: T1, PDE-4A (Homo sapiens, UniProt P27815); assay: PDE-4A inhibitory assay (SPA); assay type: biochemical
T1 construct: PDE-4A catalytic domain comprising amino acids 342-704; made in house; host or cells: Escherichia coli
Method in brief: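 Human recombinant PDE-4A catalytic domain (aa 342-704), E. coli-expressed. SPA with 1 μM [^3H]-cAMP substrate in 100 mM Tris-HCl pH 7.5, 5 mM MgCl2, 1% DMSO; 20 min at 22° C. Non-specific activity with 100 μM rolipram subtracted.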

[2] = system: TNFα release; assay: LPS-induced TNFα release in diluted human blood (ELISA); assay type: cell-based; details: LPS 1 μg/ml, human blood diluted 1:5, 24 h; read-out: IC50 value in the TNFα inhibitory assay
Description: Isolated leukocytes can be stimulated for the release of cytokines in different ways. Lipopolysaccharides (LPS) are a stimulus for the investigation of the TNFα release. LPS is part of bacterial cell walls and is released when the bacteria are killed (by antibiotics or the natural immune system). LPS stimulates in particular the activity of phagocytizing leukocytes (tissue macrophages, granulocytes, monocytes) and causes the infiltration of leukocytes from the peripheral blood into the affected tissue. A cytokine of special significance for these mechanisms is TNFα which is secreted in large amounts by the affected cells. The main source are here monocytes and macrophages. TNFα initiates and prolongs the inflammatory process in cooperation with other mediators.
For the investigation of the effect on the LPS-induced TNFα release a method was used which was described by Marx, D., Tassabehji, M., Heer, S., Hüttenbrink, K.-B., and I. Szelenyi, Pulmonary Pharmacology & Therapeutics (2002) 15, 7-15. The method is briefly: Human blood was taken from various donors, rendered incoagulable by the addition of 10 mM Na citrate and diluted 1:5 with RPMI 1640 cell culture medium. The test substances were added to the blood samples at various concentrations. 15 min later, the leukocytes were stimulated by the addition of lipopolysaccharides (LPS) from Salmonella abortus equi at a final concentration of 1 μg/ml. After the incubation of the test batches at 37° C. and under 5% CO2 in a water-saturated air for 24 h, the blood was centrifuged and the TNFα concentration in the cell-free supernatant was accurately measured using a purchasable ELISA (BD Biosciences) according to the manufacturer's instructions.

T1 sequence (P27815 342-704): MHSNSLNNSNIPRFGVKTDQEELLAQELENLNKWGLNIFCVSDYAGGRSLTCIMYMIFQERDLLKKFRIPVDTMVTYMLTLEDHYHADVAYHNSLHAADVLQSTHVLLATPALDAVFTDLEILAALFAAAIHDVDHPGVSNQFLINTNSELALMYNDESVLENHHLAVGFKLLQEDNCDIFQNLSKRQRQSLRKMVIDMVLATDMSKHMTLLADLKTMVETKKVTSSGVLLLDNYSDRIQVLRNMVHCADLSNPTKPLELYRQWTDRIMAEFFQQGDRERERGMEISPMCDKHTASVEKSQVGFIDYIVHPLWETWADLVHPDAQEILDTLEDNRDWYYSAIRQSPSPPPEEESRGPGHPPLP

Compound	IC50 [1] [nM]	IC50 [2] [nM]
CCOc1nc(N2CCNCC2)c2sc3nc(C)c(Cc4ccc([N+](=O)[O-])cc4)c(C)c3c2n1 [2-Ethoxy-7,9-dimethyl-8-(4-nitro-benzyl)-4-(piperazin-1-yl)-pyrido[3′,2′:4,5]thieno[3,2-d]pyrimidine]	2 to 50	< 2000
CCOc1nc(N2CCNCC2)nc2c1sc1nc(C)c(Cc3ccc([N+](=O)[O-])cc3)c(C)c12 [4-Ethoxy-7,9-dimethyl-8-(4-nitro-benzyl)-2-(piperazin-1-yl)-pyrido[3′,2′:4,5]thieno[3,2-d]pyrimidine]	2 to 50	< 2000
Cc1cc(-c2ccccc2)nc2sc3c(N4CCNCC4)nc(OCCO)nc3c12 [2-(2-Hydroxy-ethoxy)-9-methyl-7-phenyl-4-(piperazin-1-yl)-pyrido[3′,2′:4,5]thieno[3,2-d]pyrimidine]	2 to 50	< 2000
CCOc1nc(N2CCNCC2)nc2c1sc1nc(-c3ccccc3)cc(-c3ccccc3)c12 [4-Ethoxy-7,9-diphenyl-2-(piperazin-1-yl)-pyrido[3′,2′:4,5]thieno[3,2-d]pyrimidine]	2 to 50	< 2000
CCOc1nc(N2CCNCC2)c2sc3nc(-c4ccc(OC)cc4)cc(C)c3c2n1 [2-Ethoxy-7-(4-methoxy-phenyl)-9-methyl-4-(piperazin-1-yl)-pyrido[3′,2′:4,5]thieno[3,2-d]pyrimidine]	2 to 50	< 2000
CCOc1nc(N2CCNCC2)nc2c1sc1nc(-c3cccnc3)cc(C(F)(F)F)c12 [4-Ethoxy-2-piperazin-1-yl-7-(3-pyridyl)-9-trifluoromethyl-pyrido[3′,2′:4,5]thieno[3,2-d]pyrimidine]	2 to 50	< 2000
CCOc1nc(N2CCNCC2)nc2c1sc1nc(-c3ccc[n+]([O-])c3)cc(C(F)(F)F)c12 [4-Ethoxy-7-(1-oxy-pyridin-3-yl)-2-(piperazin-1-yl)-9-trifluoromethyl-pyrido[3′,2′:4,5]thieno[3,2-d]pyrimidine]	2 to 50	< 2000
CCOc1nc(N2CCNCC2)c2sc3nc(-c4ccc(C(F)(F)F)cc4)cc(C)c3c2n1 [2-Ethoxy-7-(4-trifluoro-methyl-phenyl)-9-methyl-4-(piperazin-1-yl)-pyrido[3′,2′:4,5]thieno[3,2-d]pyrimidine]	2 to 50	< 2000
CCOc1nc(N2CCNCC2)nc2c1sc1nc(-c3ccncc3)cc(C(F)(F)F)c12 [4-Ethoxy-2-(piperazin-1-yl)-7-(4-pyridyl)-9-trifluoromethyl-pyrido[3′,2′:4,5]thieno[3,2-d]pyrimidine]	2 to 50	< 2000
CCOc1nc(N2CCNCC2)c2sc3nc(-c4ccc(OC)c(OC)c4)cc(C)c3c2n1 [2-Ethoxy-7-(3,4-dimethoxy-phenyl)-9-methyl-4-(piperazin-1-yl)-pyrido[3′,2′:4,5]thieno[3,2-d]pyrimidine]	2 to 50	< 2000

Continued, values first:

IC50 [1] [nM]	IC50 [2] [nM]	Compound
2 to 50	< 2000	CCOc1nc(N2CCNCC2)nc2c1sc1nc(-c3ccc(-c4cc[nH]c4)cc3)nc(C)c12 [4-Ethoxy-9-methyl-2-piperazin-1-yl-7-(4-[3-pyrrolyl]-phenyl)-thieno[2,3-d:4,5-d′]dipyrimidine]
< 2	< 2000	CCOc1nc(N2CCNCC2)nc2c1sc1nc(-c3ccc(-c4ccoc4)cc3)nc(C)c12 [4-Ethoxy-7-(4-[3-furyl]-phenyl)-9-methyl-2-piperazin-1-yl-thieno[2,3-d:4,5-d′]dipyrimidine]
2 to 50	< 2000	CCOc1nc(N2CCNCC2)nc2c1sc1nc(-c3cc[n+]([O-])cc3)cc(C(F)(F)F)c12 [4-Ethoxy-7-(1-oxy-pyridin-4-yl)-2-(piperazin-1-yl)-9-trifluoromethyl-pyrido[3′,2′:4,5]thieno[3,2-d]pyrimidine]
< 2	< 2000	CCOc1nc(N2CCNCC2)nc2c1sc1nc(-c3ccc(NC(=O)c4cccnc4)cc3)cc(C(F)(F)F)c12 [N-(4-(4-Ethoxy-9-trifluoromethyl-2-piperazin-1-yl-pyrido[3′,2′:4,5]thieno[3,2-d]pyrimidin-7-yl)-phenyl)-nicotinamide]
2 to 50	< 2000	CCOc1nc(N2CCNCC2)nc2c1sc1nc(N3CCOCC3)cc(-c3ccccc3)c12 [4-Ethoxy-7-morpholino-9-phenyl-2-(piperazin-1-yl)-pyrido[3′,2′:4,5]thieno[3,2-d]pyrimidine]
< 2	< 2000	CCOc1nc(N2CCNCC2)nc2c1sc1nc(-c3ccc(NC=O)cc3)cc(C(F)(F)F)c12 [N-(4-(4-Ethoxy-9-trifluoromethyl-2-piperazin-1-yl-pyrido[3′,2′:4,5]thieno[3,2-d]pyrimidin-7-yl)-phenyl)-formamide]
< 2	< 2000	CCOc1nc(N2CCNCC2)nc2c1sc1nc(-c3ccc(-c4cccc(N)c4)cc3)nc(C)c12 [7-(3′-Aminobiphen-4-yl)-4-ethoxy-9-methyl-2-piperazin-1-yl-thieno[2,3-d:4,5-d′]dipyrimidine]
2 to 50	< 2000	CCOc1nc(N2CCNCC2)nc2c1sc1nc(-c3ccc(OC)cc3)cc(C)c12 [4-Ethoxy-7-(4-methoxy-phenyl)-9-methyl-2-(piperazin-1-yl)-pyrido[3′,2′:4,5]thieno[3,2-d]pyrimidine]
2 to 50	< 2000	CCOc1nc(N2CCNCC2)nc2c1sc1nc(N3CCOCC3)c3c(c12)CCCC3 [8-Ethoxy-5-morpholino-10-piperazin-1-yl-pyrimido[4′,5′:4,5]thieno[2,3-c]-1,2,3,4-tetrahydro-isoquinoline]
< 2	< 2000	CCOc1nc(N2CCNCC2)nc2c1sc1nc(-c3ccc(C(N)=NO)cc3)cc(C(F)(F)F)c12 [N′-Hydroxy-4-(4-ethoxy-9-trifluoromethyl-2-piperazin-1-yl-pyrido[3′,2′:4,5]thieno[3,2-d]pyrimidin-7-yl)-benzamidine bistrifluoroacetate]
< 2	< 2000	CCOc1nc(N2CCNCC2)nc2c1sc1nc(-c3ccc(-n4ccnc4)cc3)cc(C(F)(F)F)c12 [4-Ethoxy-7-(4-(1H-imidazol-1-yl)phenyl)-2-(piperazin-1-yl)-9-trifluoromethyl-pyrido[3′,2′:4,5]thieno[3,2-d]pyrimidine]
2 to 50	< 2000	CCOc1nc(N2CCNCC2)nc2c1sc1nc(-c3ccc(F)cc3)cc(C)c12 [4-Ethoxy-7-(4-fluoro-phenyl)-9-methyl-2-(piperazin-1-yl)-pyrido[3′,2′:4,5]thieno[3,2-d]pyrimidine]
< 2	< 2000	CCOc1nc(N2CCNCC2)nc2c1sc1nc(-c3ccc(NC(=O)c4ccncc4)cc3)cc(C(F)(F)F)c12 [N-(4-(4-Ethoxy-9-trifluoromethyl-2-piperazin-1-yl-pyrido[3′,2′:4,5]thieno[3,2-d]pyrimidin-7-yl)-phenyl)-isonicotinamide]
2 to 50	< 2000	CCOc1nc(N2CCNCC2)nc2c1sc1nc(C)c(Cc3ccc(N)cc3)c(C)c12 [8-(4-Amino-benzyl)-4-ethoxy-7,9-dimethyl-2-(piperazin-1-yl)-pyrido[3′,2′:4,5]thieno[3,2-d]pyrimidine]
2 to 50	< 2000	CCCOc1nc(N2CCNCC2)nc2c1sc1nc(-c3ccccc3)cc(C)c12 [9-Methyl-7-phenyl-2-(piperazin-1-yl)-4-n-propoxy-pyrido[3′,2′:4,5]thieno[3,2-d]pyrimidine]

Reference: patent US8058285B2, “Substituted pyrido [3′, 2′: 4, 5] thieno [3, 2-D] pyrimidines and pyrido [3′, 2′: 4, 5] furo [3, 2-D] pyrimidines used as inhibitors of the PDE-4 and/or the release of TNF-ALPHA” (The Medicines Company (Leipzig) GmbH, priority 2004, dated 2011)
